What was measured:
[1] = system: wheat; assay: Test A pre-/postemergence herbicide test; format: in vivo, Triticum aestivum
Outline: (§1)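 Both application timings used compounds in a non-phytotoxic solvent plus surfactant. Pre-emergence: soil sprayed directly after seeding into loam/sand. Post-emergence: foliage of 2–10 cm seedlings (1–2 leaves) sprayed. Injury rated ~10 days later, 0–100.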

[2] = system: morningglory; assay: Test A pre-/postemergence herbicide test; format: in vivo, Ipomoea spp.
Outline: as §1

[3] = system: giant foxtail; assay: Test A pre-/postemergence herbicide test; format: in vivo, Setaria faberii
Outline: as §1

[4] = system: velvetleaf; assay: Test A pre-/postemergence herbicide test; format: in vivo, Abutilon theophrasti
Outline: as §1

[5] = system: barnyardgrass; assay: Test B flooded paddy test; format: in vivo, Echinochloa crus-galli; conditions: Flood, scale of 0 to 100 where 0 is no effect and 100 is complete control
Outline: (§2)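 Scoring: visual, compared with untreated controls, 0 = no effect through 100 = complete control, taken 13 to 15 days after treatment in the greenhouse. Compounds had been added to paddy water over soil flooded 3 cm deep at the plants' 2-leaf stage.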

[6] = system: sedge, umbrella; assay: Test B flooded paddy test; format: in vivo, Cyperus difformis; conditions: Flood, scale of 0 to 100 where 0 is no effect and 100 is complete control
Outline: as §2

[7] = system: crabgrass, large; assay: Test A pre-/postemergence herbicide test; format: in vivo, Digitaria sanguinalis
Outline: as §1

[8] = system: corn; assay: Test A pre-/postemergence herbicide test; format: in vivo, Zea mays
Outline: as §1

[9] = system: rice; assay: Test B flooded paddy test; format: in vivo, Oryza sativa; conditions: Flood, scale of 0 to 100 where 0 is no effect and 100 is complete control
Outline: as §2

[10] = system: pigweed; assay: Test A pre-/postemergence herbicide test; format: in vivo, Amaranthus retroflexus
Outline: as §1

[11] = system: ducksalad; assay: Test B flooded paddy test; format: in vivo, Heteranthera limosa; conditions: Flood, scale of 0 to 100 where 0 is no effect and 100 is complete control
Outline: as §2

[12] = system: barnyardgrass; assay: Test A pre-/postemergence herbicide test; format: in vivo, Echinochloa crus-galli
Outline: as §1

[13] = 125 g ai/ha, visual rating, 0 to 100 scale, 0 no effect, 100 complete control, approximately 10 days, preemergence
[14] = Postemergence, 125 g ai/ha, 0 to 100 scale, 0 is no effect, 100 is complete control
[15] = preemergence, 500 g ai/ha, 0 to 100 scale, 0 is no effect and 100 is complete control
[16] = Postemergence, 125 g ai/ha, 0 to 100 scale, 0 no effect, 100 complete control
[17] = Postemergence, 500 g ai/ha, 0 to 100 scale (0 no effect, 100 complete control)
[18] = Preemergence, 125 g ai/ha, visual rating on 0 to 100 scale (0 no effect, 100 complete control)
[19] = preemergence, 500 g ai/ha, 0 to 100 scale

## COc1cc(C2CNC(=O)C2C(=O)Nc2cccc(F)c2F)ccc1F (racemic) [Compound 195]
[1]; [13]
  Plant response rating, Wheat: 0
[1]; [14]
  Plant response rating, Wheat: 0
[1]; Postemergence, 500 g ai/ha
  Wheat plant response rating (0 to 100 scale, 0 is no effect, 100 is complete control): 30
[1]; [15]
  Plant response rating, Wheat: 0
[2]; [13]
  Plant response rating, Morningglory: 0
[2]; [14]
  Plant response rating, Morningglory: 0
[2]; Postemergence, 500 g ai/ha
  Morningglory plant response rating (0 to 100 scale, 0 is no effect, 100 is complete control): 0
[2]; [15]
  Plant response rating, Morningglory: 0
[3]; [13]
  Plant response rating, Foxtail, Giant: 80
[3]; [14]
  Plant response rating, Foxtail, Giant: 30
[3]; Postemergence, 500 g ai/ha
  Foxtail, Giant plant response rating (0 to 100 scale, 0 is no effect, 100 is complete control): 70
[3]; [15]
  Plant response rating, Foxtail, Giant: 90
[4]; [13]
  Plant response rating, Velvetleaf: 0
[4]; [14]
  Plant response rating, Velvetleaf: 0
[4]; Postemergence, 500 g ai/ha
  Velvetleaf plant response rating (0 to 100 scale, 0 is no effect, 100 is complete control): 0
[4]; [15]
  Plant response rating, Velvetleaf: 0
[5]; 250 g ai/ha
  Plant response rating, Barnyardgrass: 30
[5]; 1000 g ai/ha
  Plant response rating, Barnyardgrass: 70
[6]; 250 g ai/ha
  Plant response rating, Sedge, Umbrella: 0
[6]; 1000 g ai/ha
  Plant response rating, Sedge, Umbrella: 0
[7]; [13]
  Plant response rating, Crabgrass, Large: 90
[7]; [14]
  Plant response rating, Crabgrass, Large: 80
[7]; Postemergence, 500 g ai/ha
  Crabgrass, Large plant response rating (0 to 100 scale, 0 is no effect, 100 is complete control): 80
[7]; [15]
  Plant response rating, Crabgrass, Large: 90
[8]; [13]
  Plant response rating, Corn: 0
[8]; [14]
  Plant response rating, Corn: 0
[8]; Postemergence, 500 g ai/ha
  Corn plant response rating (0 to 100 scale, 0 is no effect, 100 is complete control): 0
[8]; [15]
  Plant response rating, Corn: 0
[9]; 250 g ai/ha
  Plant response rating, Rice: 0
[9]; 1000 g ai/ha
  Plant response rating, Rice: 15
[10]; [13]
  Plant response rating, Pigweed: 0
[10]; [14]
  Plant response rating, Pigweed: 0
[10]; Postemergence, 500 g ai/ha
  Pigweed plant response rating (0 to 100 scale, 0 is no effect, 100 is complete control): 0
[10]; [15]
  Plant response rating, Pigweed: 0
[11]; 250 g ai/ha
  Plant response rating, Ducksalad: 35
[11]; 1000 g ai/ha
  Plant response rating, Ducksalad: 100
[12]; [13]
  Plant response rating, Barnyardgrass: 30
[12]; [14]
  Plant response rating, Barnyardgrass: 80
[12]; Postemergence, 500 g ai/ha
  Barnyardgrass plant response rating (0 to 100 scale, 0 is no effect, 100 is complete control): 90
[12]; [15]
  Plant response rating, Barnyardgrass: 90

## CC1(C(=O)Nc2cccc(F)c2F)C(=O)NCC1c1ccc(F)c(Cl)c1 (stereo not shown) [Compound 61]
[1]; [16]
  Plant response rating, Wheat: 0
[1]; [17]
  Plant response rating, Wheat: 0
[1]; [18]
  Wheat plant response rating: 0
[1]; [19]
  Plant response rating, Wheat: 0
[2]; [16]
  Plant response rating, Morningglory: 0
[2]; [17]
  Plant response rating, Morningglory: 0
[2]; [18]
  Morningglory plant response rating: 0
[2]; [19]
  Plant response rating, Morningglory: 0
[3]; [16]
  Plant response rating, Foxtail, Giant: 0
[3]; [17]
  Plant response rating, Foxtail, Giant: 30
[3]; [18]
  Foxtail, Giant plant response rating: 0
[3]; [19]
  Plant response rating, Foxtail, Giant: 0
[4]; [16]
  Plant response rating, Velvetleaf: 0
[4]; [17]
  Plant response rating, Velvetleaf: 0
[4]; [18]
  Velvetleaf plant response rating: 0
[4]; [19]
  Plant response rating, Velvetleaf: 0
[5]; 250 g ai/ha
  Plant response rating, Barnyardgrass: 0
[6]; 250 g ai/ha
  Plant response rating, Sedge, Umbrella: 30
[7]; [16]
  Plant response rating, Crabgrass, Large: 0
[7]; [17]
  Plant response rating, Crabgrass, Large: 70
[7]; [18]
  Crabgrass, Large plant response rating: 0
[7]; [19]
  Plant response rating, Crabgrass, Large: 80
[8]; [16]
  Plant response rating, Corn: 0
[8]; [17]
  Plant response rating, Corn: 0
[8]; [18]
  Corn plant response rating: 0
[8]; [19]
  Plant response rating, Corn: 0
[9]; 250 g ai/ha
  Plant response rating, Rice: 0
[10]; [16]
  Plant response rating, Pigweed: 0
[10]; [17]
  Plant response rating, Pigweed: 0
[10]; [18]
  Pigweed plant response rating: 0
[10]; [19]
  Plant response rating, Pigweed: 0
[11]; 250 g ai/ha
  Plant response rating, Ducksalad: 0
[12]; [16]
  Plant response rating, Barnyardgrass: 0
[12]; [17]
  Plant response rating, Barnyardgrass: 20
[12]; [18]
  Barnyardgrass plant response rating: 0
[12]; preemergence, 500 g ai/ha, 0 to 100 scale (0 no effect, 100 complete control)
  Plant response rating, Barnyardgrass: 0
